Experimental data published in the CheMixHub viscosity set.
± gives the uncertainty stated by the source.

Experiment: xn = mol fraction of the nth substance listed

CCNCC + O=C1CCCCC1
298.15 K, 101 kPa
Conditions | viscosity [mPa·s]
x2 = 0.076 | 0.296 ± 0.008
x2 = 0.157 | 0.338 ± 0.008
x2 = 0.2421 | 0.415 ± 0.009
x2 = 0.3319 | 0.502 ± 0.01
x2 = 0.427 | 0.639 ± 0.012
x2 = 0.5278 | 0.79 ± 0.013
x2 = 0.6349 | 0.97 ± 0.014
x2 = 0.7488 | 1.224 ± 0.016
x2 = 0.8702 | 1.54 ± 0.017

CCNCC + CCCC(C)O
viscosity [mPa·s], 100 kPa
Conditions | 293.15 K | 298.15 K | 303.15 K | 308.15 K | 313.15 K | 318.15 K | 323.15 K
x1 = 0.0218 | 3.75 ± 0.08 | 3.12 ± 0.07 | 2.6 ± 0.06 | 2.18 ± 0.05 | 1.85 ± 0.04 | 1.59 ± 0.03 | 1.37 ± 0.03
x1 = 0.081 | 3.2 ± 0.07 | 2.7 ± 0.06 | 2.28 ± 0.05 | 1.92 ± 0.04 | 1.66 ± 0.04 | 1.44 ± 0.03 | 1.25 ± 0.03
x1 = 0.16 | 2.57 ± 0.05 | 2.207 ± 0.047 | 1.9 ± 0.04 | 1.62 ± 0.03 | 1.42 ± 0.03 | 1.25 ± 0.03 | 1.1 ± 0.02
x1 = 0.2399 | 2.04 ± 0.04 | 1.78 ± 0.04 | 1.555 ± 0.033 | 1.35 ± 0.03 | 1.204 ± 0.026 | 1.07 ± 0.02 | 0.96 ± 0.02
x1 = 0.3499 | 1.5 ± 0.03 | 1.33 ± 0.03 | 1.18 ± 0.03 | 1.05 ± 0.02 | 0.945 ± 0.02 | 0.858 ± 0.019 | 0.78 ± 0.02
x1 = 0.44 | 1.16 ± 0.03 | 1.04 ± 0.02 | 0.94 ± 0.02 | 0.85 ± 0.02 | 0.778 ± 0.017 | 0.71 ± 0.02 | 0.65 ± 0.02
x1 = 0.56 | 0.84 ± 0.02 | 0.76 ± 0.02 | 0.7 ± 0.02 | 0.644 ± 0.014 | 0.592 ± 0.013 | 0.544 ± 0.012 | 0.494 ± 0.011
x1 = 0.6501 | 0.68 ± 0.02 | 0.629 ± 0.014 | 0.577 ± 0.013 | 0.53 ± 0.01 | 0.489 ± 0.011 | 0.446 ± 0.01 | 0.41 ± 0.01
x1 = 0.74 | 0.552 ± 0.012 | 0.506 ± 0.012 | 0.466 ± 0.011 | 0.435 ± 0.01 | 0.4 ± 0.01 | 0.367 ± 0.009 | 0.34 ± 0.01
x1 = 0.8497 | 0.45 ± 0.01 | 0.416 ± 0.01 | 0.387 ± 0.009 | 0.36 ± 0.01 | 0.335 ± 0.008 | 0.311 ± 0.008 | 0.285 ± 0.007
x1 = 0.9397 | 0.368 ± 0.009 | 0.346 ± 0.008 | 0.325 ± 0.008 | 0.304 ± 0.008 | 0.285 ± 0.007 | 0.268 ± 0.007 | 0.25 ± 0.01
x2 = 0.0189 | 0.332 ± 0.008 | 0.316 ± 0.008 | 0.3 ± 0.01 | 0.283 ± 0.007 | 0.268 ± 0.007 | 0.254 ± 0.007 | 0.24 ± 0.01
